Results as given in patent US8227424B2, “Collagen peptide, dipeptide and malady inhibitor” (Nitta Gelatin Inc., priority 2008, dated 2012).
Square brackets hold non-standard residues; d marks the D form. Ends that are not written are not given here. Peptide text beside a SMILES is read from it. Hyp = O=C(O)[C@@H]1C[C@@H](O)CN1

How the values were obtained:
[1] = test system: precursory cartilage cell stock ATDC5; experiment: Evaluation Test 1-3: inhibition of degeneration of cartilage cells (ALP); type: cell-based; details: ATDC5, 2.5 mmol/L end concentration, after 5 days culture, control (blank) = 100
Experimental: The Hyp-Gly, a 1:1 mixture of the Hyp-Gly and the Pro-Hyp and a 1:1:1 mixture of the Hyp-Gly, the Pro-Hyp and the Ala-Hyp were used, and each dipeptide was added to a precursory cartilage cell stock ATDC5 culture liquid so as to be 2.5 mmol/L in end concentration. After 5 days from the culture, each inhibition activity of alkaline phosphatase (ALP) being a marker enzyme for hypertrophied cartilages and calcification was examined. In the same way, the ALP activity when using the other dipeptides (Pro-Hyp, Ala-Hyp, Leu-Hyp, Phe-Hyp, Ser-Hyp), the tripeptide (Pro-Hyp-Gly) and the amino acids (Pro, Hyp) was examined. Furthermore, as a control, the ALP activity when adding no peptide (blank) was also examined.

[2] = test system: precursory cartilage cell stock ATDC5; experiment: Evaluation Test 2-2: ALP inhibition activity of Pro-Hyp and comparisons; type: cell-based; details: ATDC5, 2.5 mM, after 5 days culture, N group = 1.0
Experimental: The aforementioned PC (PC group), FC (FC group) and PC-CA (PC-CA group) were used, and each collagen peptide was added to a precursory cartilage cell stock ATDC5 culture liquid so as to be 0.1% in end concentration. After 5 days from the culture, each inhibition activity of alkaline phosphatase (ALP) being a marker enzyme for hypertrophied cartilages and calcification was examined. For comparison, the ALP inhibition activity when adding no peptide (N group), the ALP inhibition activity when using peptone (Pe group) of 0.1% in end concentration, and the ALP inhibition activity when using the aforementioned PC-Cont (PC-Cont group) and PC-CA-Cont (PC-CA-Cont group) were also examined.
The ALP inhibition activity was examined in the same way as of evaluation test 2-1 except that: a dipeptide Pro-Hyp as synthesized by a solid-phase method (produced by PH Japan) ([Pro-Hyp] group) was used, the amount of its addition was changed to 2.5 mM and, for comparison, no peptide was added (N group) or glycine being a free amino acid (Gly group), proline being a free amino acid (Pro group), hydroxyproline being a free amino acid (Hyp group), a free amino acid mixture of proline and hydroxyproline ([Pro+Hyp] group), a free amino acid mixture of glycine, proline and hydroxyproline ([Gly+Pro+Hyp] group), and a tripeptide Pro-Hyp-Gly as synthesized by a solid-phase method (produced by PH Japan) ([Pro-Hyp-Gly] group) were used.

[3] = test system: osteoblast stock MC3T3-E1; experiment: Evaluation Test 1-2: promotion of differentiation and activation of osteoblasts (ALP); type: cell-based; details: MC3T3-E1, 2.5 mmol/L end concentration, after 10 days culture, control (blank) = 100
Experimental: Each of dexamethasone (end concentration: 1 nmol/L), β-glycerophosphoric acid (end concentration: 5 mmol/L), and ascorbic acid (end concentration: 100 μg/mL) was added to an osteoblast stock MC3T3-E1 culture liquid, and then the Hyp-Gly and a 1:1 mixture of the Hyp-Gly and the Pro-Hyp were used, and each of them was added to the aforementioned culture liquid so as to be 2.5 mmol/L in end concentration. After 10 days from the culture, each promotion activity of alkaline phosphatase (ALP) being a marker enzyme for differentiation and calcification of osteoblasts was examined. In the same way, the ALP promotion activity when using the other dipeptides (Pro-Hyp, Ala-Hyp, Leu-Hyp, Phe-Hyp, Ser-Hyp), the tripeptide (Pro-Hyp-Gly) and the amino acids (Pro, Hyp) was examined. Furthermore, as a control, the ALP promotion activity when adding no peptide (blank) was also examined.

[4] = test system: osteoclasts; experiment: Evaluation Test 1-1: Pit assay, osteoclasts cultured on dentin slices; type: cell-based, mouse; details: control (blank) = 100, n = 6; for Relative number (%) of TRAP positive multinucleate giant cells (osteoclasts) in culture on dentin slices: culture about 1 week on dentin slices; for Relative number (%) of Pit: number of absorption pits on dentin slices, culture about 1 week
Experimental: In addition, the degree of inhibition of differentiation and activation of osteoclasts by the various peptides and amino acids was evaluated by the following Pit assay. That is to say, the Pit assay where osteoclasts were cultured on […] was carried out in accordance with Kakudo S, et al. (1996). J. Bone Miner. Metab. 14: 129-136, specifically, as follows.
Precursory cells of osteoclasts derived from young mouse […] were freeze-preserved at −80° C. together with a bone marrow stroma cells-containing suspension in the presence of 10% DMSO, thereby making matured osteoclasts extinct.
These cells of 2.0×10^5 in number were seeded into each well of a 96-well plate where dentin slices were set, and each peptide to be tested was added to the culture liquid, and culture was carried out at 37° C. in 5% CO2 for about 1 week. Thereafter, cells were removed from the dentin slices by a silicon-made rubber POLICEMAN, and then the dentin slices were dyed with an […] for several minutes. Hereupon, the number of TRAP dyeing positive multinucleate giant cells (osteoclasts) was counted by the TRAP dyeing, and the number relative to the number of cells in the control (blank) was calculated. Thereafter, the Pit number (number of absorption pits) by osteoclasts was counted under a microscope, and the degree of inhibition of activity of osteoclasts by each peptide to be tested was indicated by the ratio relative to the blank (control).

[5] = test system: osteoclasts (primary mouse bone marrow cell culture); experiment: Evaluation Test 1-1: osteoclast differentiation culture on plastic Petri dish (TRAP); type: cell-based; details: 625 μM end concentration, after 6 days culture, control (blank) = 100, n = 6
Experimental: The evaluation was carried out in accordance with Kobayashi Y. et al.'s osteoclast differentiation culture method [J. Bone Miner. Metab. (2004) 22: p. 318-328].
That is to say, the Hyp-Gly and a 1:1 mixture of the Hyp-Gly and the Pro-Hyp were used, and each of them was added to a primary mouse bone marrow cell culture liquid so as to be 625 μM in end concentration. After 6 days from the culture, each inhibition activity of tartaric acid resistant acid phosphatase (TRAP) being a marker enzyme was examined. In the same way, the TRAP inhibition activity when using the other dipeptides (Pro-Hyp, Ala-Hyp, Leu-Hyp, Phe-Hyp, Ser-Hyp), the tripeptide (Pro-Hyp-Gly) and the amino acids (Pro, Hyp) was examined. Furthermore, as a control, the TRAP inhibition activity when adding no peptide (blank) was also examined.

[6] = rat, in vivo
Experimental: (§1) Wister strain male rats (170 g) were caused to go on a fast of one night and then subjected to experiments.
(§2) As a test method, a cannula was equipped to a heart and portal vein of each rat, and one-directional perfusion was carried out. The perfusion liquid being used was prepared in a way that to a Krebs-Ringer bicarbonate solution (KRB solution, pH 7.4) comprising 9.0 g of NaCl, 8 mL of 5.75% KCl, 2 mL of 10.55% KH2PO4, 2 mL of 19% MgSO4, 2.73 g of NaHCO3, 3.43 g of glucose and 1255 mL of water, there was added 10 g of bovine serum albumin, 0.5 mL of dexamethasone (0.123 mg/mL) and 0.5 mL of noradrenaline (0.024 mg/mL) relative to 500 mL of the aforementioned KRB solution.
(§3) An amount of 0.5 mL of 30% sulfosalicylic acid was added to 5.0 mL of perfusion sample liquid taken from portal vein, and the resultant mixture was vigorously stirred and then left in a refrigerator for one night. This sample was centrifuged at 3000 rpm for 10 minutes to remove protein.
(§4) Furthermore, 3.0 mL of the aforementioned centrifugal supernatant was weighed out and placed into a screw opening test tube, and thereto an equivalent of concentrated hydrochloric acid was added to carry out hydrolysis at 110° C. for 24 hours. Concentration to dryness was carried out with an evaporator to remove hydrochloric acid, and then the residue was dissolved into 5 mL of distilled water, and thereto several drops of saturated lithium hydroxide solution were added to adjust pH to the range of 5 to 7, and the volume was adjusted to 10 mL. […] A value obtained by subtracting the free type Hyp amount before hydrolysis from the total Hyp amount after hydrolysis is a peptide-form Hyp amount.
(§5) Analysis of the dipeptides in the perfusion liquid was carried out by reversed-phase HPLC analysis. As HPLC apparatus, LCSS-905 system produced by JASCO Corporation comprising a liquid-feeding pump, a decassa, an autosamplor, a column oven, ultraviolet spectrophotometer, a printer and a system controller was used. As the reversed-phase column, Nova Pak C18 (3.9×150 mm) was used.
(§6) A linear-gradient moving bed of a 0.1% TFA-containing acetonitrile-water system was used, the injection amount of the sample was 70 μL, and the flow rate was 1 mL/min.
(§7) As HPLC apparatus, U980HPLC (produced by JASCO Corporation) was used. This apparatus was equipped with an ODS (C18) column (Mightysil RP-18, 2×250 mm, produced by Kanto Chemical Co Ltd). The moving bed solvent was a 0.2% formic acid-containing acetonitrile-water system, and the concentration was raised from 0% to 40% acetonitrile by linear gradient in 40 minutes, and washing was carried out with 100% acetonitrile for 10 minutes. The injection amount of the sample was 10 μL, and the column temperature was 40° C.
(§8) The MS analysis was carried out in accordance with an MS/MS system with a Quattro LC mass spectrophotometer (Micromass, Manchester, UK) by a Multiple Reaction Monitoring method of 4 channels. That is to say, an eluate from the HPLC was monitored by m/z being [M+H]^+ and m/s of its fragment ion species.

[7] = in vivo; details: male, Wister, rat, po, 215 nmol/10 mL
Experimental: as §1, §2, §3, §4, §5, §6, §7, §8

| Compound | Relative value (%) of ALP [1] [%] | Relative ALP activity [2] | Relative value (%) of ALP [3] [%] | Relative number (%) of TRAP positive multinucleate giant cells (osteoclasts) in culture on dentin slices [4] [%] | Relative number (%) of Pit [4] [%] | Relative area (%) of TRAP positive multinucleate giant cells (osteoclasts) in culture on plastic Petri dish [5] [%] | Relative number (%) of TRAP positive multinucleate giant cells (osteoclasts) in culture on plastic Petri dish [5] [%] | Intestine absorption, in words [6] | level at time molar [7] [µM] |
| --- | --- | --- | --- | --- | --- | --- | --- | --- | --- |
| Pro-[Hyp]-Gly [Comparative Example 4] | 84 ± 14 | 0.8 ± 0.01 | 103 ± 22 | 91 ± 11 | 97 ± 13 | 113 ± 11 | 109 ± 15 | – | – |
| Leu-Hyp [Comparative Example 1] | 93 ± 12 | – | 92 ± 12 | 101 ± 12 | 91 ± 11 | 83 ± 27 | 88 ± 22 | – | – |
| O=C(O)CNC(=O)[C@@H]1C[C@@H](O)CN1 [Example 1, Hyp-Gly] (H-[Hyp]-Gly-OH; N-terminus and C-terminus assumed) | – | – | – | – | – | – | – | absorbed into intestine extremely rapidly and stably (without being decomposed into amino acids) | 9.8 |
| O=C(O)[C@@H]1C[C@@H](O)CN1C(=O)[C@@H]1CCCN1 [Referential Example 1-1, Pro-Hyp] (H-Pro-[Hyp]-OH; N-terminus and C-terminus assumed) | – | – | – | – | – | – | – | absorbed into intestine extremely rapidly and stably (without being decomposed into amino acids) | 21.3 |
| O=C(O)[C@@H]1C[C@@H](O)CN1 [Comparative Example 6, hydroxyproline] | 101 ± 1 | 1.0 ± 0.01 | 103 ± 25 | 141 ± 9 | 131 ± 11 | 117 ± 13 | 126 ± 4 | – | – |
| C[C@H](N)C(=O)N1C[C@H](O)C[C@H]1C(=O)O [Referential Example 1-2, Ala-Hyp] (H-Ala-[Hyp]-OH; N-terminus and C-terminus assumed) | – | – | – | – | – | – | – | – | 1.2 |
| Phe-Hyp [Comparative Example 2] | 109 ± 11 | – | 109 ± 11 | 98 ± 11 | 109 ± 15 | 118 ± 21 | 119 ± 16 | – | – |
| N[C@@H](CO)C(=O)N1C[C@H](O)C[C@H]1C(=O)O [Comparative Example 3, Ser-Hyp] (H-Ser-[Hyp]-OH; N-terminus and C-terminus assumed) | – | – | – | – | – | – | – | – | 0.7 |
| NCC(=O)O [Gly, glycine] | – | 1.1 ± 0.01 | – | – | – | – | – | – | – |
| O=C(O)[C@@H]1CCCN1 [Comparative Example 5, Proline] | 98 ± 10 | 0.98 ± 0.1 | 97 ± 15 | 119 ± 20 | 121 ± 23 | 125 ± 69 | 119 ± 44 | – | – |
